Measured values from patent US11970458B1, “4,5-bis(4-bromophenyl)-1-hexyl-2-(4-nitrophenyl)-1H-imidazole as an antimicrobial compound” (KING FAISAL UNIVERSITY, priority 2023, dated 2024).

Key:
[1] = system: Staphylococcus aureus; assay: antimicrobial screening by agar dilution; assay type: cell-based; details: after 10, 20, 40 and 60 minutes at all dilutions 1:100, 1:200, 1:400, 1:800
Method: (§1) The antimicrobial properties of the 4,5-bis(4-bromophenyl)-1-hexyl-2-(4-nitrophenyl)-1H-imidazole was studied by the method of agar dilution. Test solutions of each compound was prepared in concentration of 1% using dimethylformamide as a solvent then they were diluted in physiological solution to obtain the final experimental dilutions 1:100, 1:200, 1:400, 1:800. The effect of these substances were compared with furacillin in a controlled study. The testing microbes used were gram positive bacteria Staphylococcus aureus, gram negative bacteria Pseudomonas aeruginosa and Escherichia coli and Candida albicans fungi were taken. The experiments used for this survey were meat-pentonlu agar (EPA) for cultivation of bacteria and Saburo environment for fungi. Each experiment used 1 ml of test solution on each plate 500 min. Add 2 drops of emulsified with microbes feel. All experimental samples were taken from the agar after 10, 20, 40, 60 minutes in the environment on the basis of Patrk planted. Bacteria were cultivated at a temperature of 37° C. for 1 day and the mushroom was kept in a thermostat for […] at a temperature of 28° C. Then results were checked.

[2] = system: Escherichia coli; assay: antimicrobial screening by agar dilution; assay type: cell-based; details: after 10, 20, 40 and 60 minutes at all dilutions 1:100, 1:200, 1:400, 1:800
Method: as §1

[3] = system: Pseudomonas aeruginosa; assay: antimicrobial screening by agar dilution; assay type: cell-based; details: after 10, 20, 40 and 60 minutes at all dilutions 1:100, 1:200, 1:400, 1:800
Method: as §1

[4] = system: Candida albicans; assay: antimicrobial screening by agar dilution; assay type: cell-based; details: after 10, 20, 40 and 60 minutes at all dilutions 1:100, 1:200, 1:400, 1:800
Method: as §1

- melting point: 160 to 161 °C
Compound: CCCCCCn1c(-c2ccc([N+](=O)[O-])cc2)nc(-c2ccc(Br)cc2)c1-c1ccc(Br)cc1 [4,5-bis(4-bromophenyl)-1-hexyl-2-(4-nitrophenyl)-1H-imidazole]
- inhibition activity [1]: highest inhibition activity
- inhibition activity [2]: highest inhibition activity
- inhibition activity [3]: highest inhibition activity
- inhibition activity [4]: highest inhibition activity
